Earlier results, collected in patent US20230310434A1, “METHODS OF REDUCING THE LIKELIHOOD OF CARCINOID HEART DISEASE IN PATIENTS WITH NEUROENDOCRINE TUMORS” (TerSera Therapeutics LLC, priority 2022, published 2023).

How the values were obtained:
[1] = test system: patients with carcinoid syndrome not adequately controlled with SSA therapy; settings: TELESTAR; TE 250 or 500 mg three times daily; patients on stable dose SSA
[2] = test system: patients with carcinoid syndrome (CS) diarrhea; settings: TELECAST
[3] = TE 250 or 500 mg three times daily, patients on stable dose SSA

CCOC(=O)[C@@H](N)Cc1ccc(-c2cc(O[C@H](c3ccc(Cl)cc3-n3ccc(C)n3)C(F)(F)F)nc(N)n2)cc1 [TE, (S)-ethyl 2-amino-3-(4-(2-amino-6-((R)-1-(4-chloro-2-(3-methyl-1H-pyrazol-1-yl)phenyl)-2,2,2-trifluoroethoxy)pyrimidin-4-yl)phenyl)propanoate]
frequency of bowel movements [1]: reduced
urinary 5-HIAA levels [1]: reduced
efficacy when added to SSAs to treat carcinoid syndrome diarrhea ([2]; TE 250 or 500 mg three times daily added to SSAs): effective
frequency of bowel movements [2, 3]: reduced
urinary 5-HIAA levels [2, 3]: reduced
